Calls of active or inactive are those of the source. No cut-off for these calls is given here.
How the values were obtained:
[1] = target: Epidermal growth factor receptor (Homo sapiens, UniProt P00533, L858R); assay: Inhibition of EGFR Leu858Arg mutant by HTRF assay; format: protein assay
[2] = system: Lymphokine-activated killer T-cell-originated protein kinase; assay: Inhibition of PBK1 at 10 uM assessed as residual activity by [33P]ATP radioactive filter binding assay relative to control
[3] = target: Epidermal growth factor receptor (Homo sapiens, UniProt P00533, L858R/T790M); assay: Inhibition of EGFR Leu858Arg and Thr790Met mutant by HTRF assay; format: protein assay
Chain of Epidermal growth factor receptor (Homo sapiens, UniProt P00533, L858R/T790M) (P00533 25-1210 T790M/L858R limits assumed): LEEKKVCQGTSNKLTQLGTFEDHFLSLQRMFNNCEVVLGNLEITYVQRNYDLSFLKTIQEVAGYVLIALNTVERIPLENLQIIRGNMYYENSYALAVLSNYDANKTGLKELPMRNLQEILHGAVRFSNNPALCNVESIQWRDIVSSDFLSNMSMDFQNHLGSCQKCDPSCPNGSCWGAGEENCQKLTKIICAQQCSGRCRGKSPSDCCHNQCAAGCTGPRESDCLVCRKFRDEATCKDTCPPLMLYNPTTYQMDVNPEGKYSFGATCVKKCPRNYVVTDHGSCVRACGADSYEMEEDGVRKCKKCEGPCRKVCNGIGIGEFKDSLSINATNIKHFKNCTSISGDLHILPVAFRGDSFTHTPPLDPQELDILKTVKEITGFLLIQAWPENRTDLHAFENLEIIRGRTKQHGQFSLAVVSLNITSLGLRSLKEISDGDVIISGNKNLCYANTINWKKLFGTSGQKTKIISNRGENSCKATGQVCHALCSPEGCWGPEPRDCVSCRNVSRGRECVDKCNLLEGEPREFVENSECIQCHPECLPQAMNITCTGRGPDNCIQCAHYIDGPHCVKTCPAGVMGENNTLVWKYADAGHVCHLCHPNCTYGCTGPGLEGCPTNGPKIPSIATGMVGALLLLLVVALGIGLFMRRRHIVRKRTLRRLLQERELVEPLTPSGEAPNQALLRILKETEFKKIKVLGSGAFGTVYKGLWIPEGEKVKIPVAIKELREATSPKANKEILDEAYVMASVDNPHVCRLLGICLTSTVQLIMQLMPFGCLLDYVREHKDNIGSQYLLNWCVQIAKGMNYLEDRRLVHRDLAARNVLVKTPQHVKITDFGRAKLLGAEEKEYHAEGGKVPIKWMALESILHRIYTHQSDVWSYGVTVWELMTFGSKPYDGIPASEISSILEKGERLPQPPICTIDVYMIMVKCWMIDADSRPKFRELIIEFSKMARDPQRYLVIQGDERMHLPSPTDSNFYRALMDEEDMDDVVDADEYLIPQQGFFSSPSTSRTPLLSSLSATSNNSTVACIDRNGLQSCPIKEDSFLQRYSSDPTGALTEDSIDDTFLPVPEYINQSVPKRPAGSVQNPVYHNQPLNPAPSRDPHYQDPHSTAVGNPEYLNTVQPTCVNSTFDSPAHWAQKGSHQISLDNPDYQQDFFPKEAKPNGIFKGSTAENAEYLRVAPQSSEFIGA

[4] = target: Ribosomal protein S6 kinase beta-1 (Homo sapiens) (UniProt P23443); assay: Inhibition of S6K1 at 10 uM assessed as residual activity by [33P]ATP radioactive filter binding assay relative to control
Chain of Ribosomal protein S6 kinase beta-1 (Homo sapiens) (P23443 whole entry, looked up): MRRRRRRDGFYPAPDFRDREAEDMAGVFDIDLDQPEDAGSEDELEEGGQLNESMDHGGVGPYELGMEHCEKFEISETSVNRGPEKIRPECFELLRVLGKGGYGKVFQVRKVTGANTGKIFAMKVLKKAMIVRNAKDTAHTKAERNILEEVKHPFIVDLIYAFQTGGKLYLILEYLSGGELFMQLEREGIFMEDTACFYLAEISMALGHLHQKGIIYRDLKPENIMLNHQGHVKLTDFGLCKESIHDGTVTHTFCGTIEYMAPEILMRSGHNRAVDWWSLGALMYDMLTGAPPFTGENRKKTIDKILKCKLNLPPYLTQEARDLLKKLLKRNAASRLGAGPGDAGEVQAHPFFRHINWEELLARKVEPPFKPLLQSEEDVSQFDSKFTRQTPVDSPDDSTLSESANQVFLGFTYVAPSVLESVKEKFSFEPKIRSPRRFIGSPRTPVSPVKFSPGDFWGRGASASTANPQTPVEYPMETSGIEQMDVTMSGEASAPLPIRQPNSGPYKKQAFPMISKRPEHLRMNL

[5] = system: PC-9; assay: Cytotoxicity against human PC9 cells expressing 746-750 sequence deleted EGFR assessed as cell viability at 0.001 to 10 uM after 96 hrs by cell titer-glo assay; format: functional, cell-based
[6] = target: T1, Epidermal growth factor receptor (Homo sapiens, UniProt P00533); assay: Inhibition of wild type EGFR by HTRF assay
T1 sequence (P00533 whole entry): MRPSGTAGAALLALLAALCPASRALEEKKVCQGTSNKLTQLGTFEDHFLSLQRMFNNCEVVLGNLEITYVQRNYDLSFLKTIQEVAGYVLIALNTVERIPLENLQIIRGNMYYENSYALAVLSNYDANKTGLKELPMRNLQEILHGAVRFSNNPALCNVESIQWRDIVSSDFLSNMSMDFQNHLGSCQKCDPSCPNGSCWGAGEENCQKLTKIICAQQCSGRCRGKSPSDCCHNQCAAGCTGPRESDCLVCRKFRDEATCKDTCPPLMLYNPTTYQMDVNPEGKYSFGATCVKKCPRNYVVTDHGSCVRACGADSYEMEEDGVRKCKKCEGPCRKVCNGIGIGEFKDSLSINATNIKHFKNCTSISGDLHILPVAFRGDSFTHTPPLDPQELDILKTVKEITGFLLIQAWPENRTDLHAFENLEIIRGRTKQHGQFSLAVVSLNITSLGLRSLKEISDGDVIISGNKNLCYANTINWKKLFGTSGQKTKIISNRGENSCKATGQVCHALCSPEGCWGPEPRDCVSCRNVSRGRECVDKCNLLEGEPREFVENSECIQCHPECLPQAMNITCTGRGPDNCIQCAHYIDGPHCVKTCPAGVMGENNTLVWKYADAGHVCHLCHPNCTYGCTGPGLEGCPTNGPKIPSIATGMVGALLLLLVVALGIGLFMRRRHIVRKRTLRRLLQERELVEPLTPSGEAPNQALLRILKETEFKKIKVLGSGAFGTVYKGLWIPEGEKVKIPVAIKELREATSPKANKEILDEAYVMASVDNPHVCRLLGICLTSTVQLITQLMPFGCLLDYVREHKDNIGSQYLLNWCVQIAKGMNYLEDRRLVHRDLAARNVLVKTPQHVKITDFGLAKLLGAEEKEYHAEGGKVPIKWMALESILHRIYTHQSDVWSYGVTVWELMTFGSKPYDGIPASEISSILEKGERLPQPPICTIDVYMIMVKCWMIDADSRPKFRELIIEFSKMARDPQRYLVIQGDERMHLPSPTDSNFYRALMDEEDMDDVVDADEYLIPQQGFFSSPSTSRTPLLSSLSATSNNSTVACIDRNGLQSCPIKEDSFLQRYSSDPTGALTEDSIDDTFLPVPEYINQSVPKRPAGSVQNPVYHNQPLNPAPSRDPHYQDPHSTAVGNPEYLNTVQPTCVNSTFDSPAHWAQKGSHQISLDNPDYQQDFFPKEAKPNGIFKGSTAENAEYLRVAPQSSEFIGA

[7] = target: Serine/threonine-protein kinase 26 (Homo sapiens) (UniProt Q9P289); assay: Inhibition of MST4 at 10 uM assessed as residual activity by [33P]ATP radioactive filter binding assay relative to control
Chain of Serine/threonine-protein kinase 26 (Homo sapiens) (Q9P289 2-416 limits assumed): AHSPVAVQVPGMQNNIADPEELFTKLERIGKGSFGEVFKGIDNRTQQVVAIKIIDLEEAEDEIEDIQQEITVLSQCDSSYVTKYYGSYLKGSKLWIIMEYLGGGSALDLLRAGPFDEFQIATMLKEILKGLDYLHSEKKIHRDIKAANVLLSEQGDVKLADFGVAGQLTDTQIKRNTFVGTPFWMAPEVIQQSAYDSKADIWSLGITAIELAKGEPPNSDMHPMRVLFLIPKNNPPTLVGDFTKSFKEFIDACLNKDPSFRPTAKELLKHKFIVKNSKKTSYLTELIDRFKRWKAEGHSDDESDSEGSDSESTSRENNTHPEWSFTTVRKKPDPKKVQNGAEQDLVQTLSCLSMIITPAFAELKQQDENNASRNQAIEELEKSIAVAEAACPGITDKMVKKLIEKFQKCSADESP

[8] = target: T1, Epidermal growth factor receptor; assay: Inhibition of 746-750 sequence deleted EGFR autophosphorylation in human PC9 cells after 24 hrs by immunoblotting; format: cell-based; conditions: PC-9
[9] = system: 3-phosphoinositide-dependent protein kinase 1; assay: Inhibition of PDK1 at 10 uM assessed as residual activity by [33P]ATP radioactive filter binding assay relative to control

Chain of Epidermal growth factor receptor (Homo sapiens, UniProt P00533, L858R) (P00533 25-1210 L858R limits assumed): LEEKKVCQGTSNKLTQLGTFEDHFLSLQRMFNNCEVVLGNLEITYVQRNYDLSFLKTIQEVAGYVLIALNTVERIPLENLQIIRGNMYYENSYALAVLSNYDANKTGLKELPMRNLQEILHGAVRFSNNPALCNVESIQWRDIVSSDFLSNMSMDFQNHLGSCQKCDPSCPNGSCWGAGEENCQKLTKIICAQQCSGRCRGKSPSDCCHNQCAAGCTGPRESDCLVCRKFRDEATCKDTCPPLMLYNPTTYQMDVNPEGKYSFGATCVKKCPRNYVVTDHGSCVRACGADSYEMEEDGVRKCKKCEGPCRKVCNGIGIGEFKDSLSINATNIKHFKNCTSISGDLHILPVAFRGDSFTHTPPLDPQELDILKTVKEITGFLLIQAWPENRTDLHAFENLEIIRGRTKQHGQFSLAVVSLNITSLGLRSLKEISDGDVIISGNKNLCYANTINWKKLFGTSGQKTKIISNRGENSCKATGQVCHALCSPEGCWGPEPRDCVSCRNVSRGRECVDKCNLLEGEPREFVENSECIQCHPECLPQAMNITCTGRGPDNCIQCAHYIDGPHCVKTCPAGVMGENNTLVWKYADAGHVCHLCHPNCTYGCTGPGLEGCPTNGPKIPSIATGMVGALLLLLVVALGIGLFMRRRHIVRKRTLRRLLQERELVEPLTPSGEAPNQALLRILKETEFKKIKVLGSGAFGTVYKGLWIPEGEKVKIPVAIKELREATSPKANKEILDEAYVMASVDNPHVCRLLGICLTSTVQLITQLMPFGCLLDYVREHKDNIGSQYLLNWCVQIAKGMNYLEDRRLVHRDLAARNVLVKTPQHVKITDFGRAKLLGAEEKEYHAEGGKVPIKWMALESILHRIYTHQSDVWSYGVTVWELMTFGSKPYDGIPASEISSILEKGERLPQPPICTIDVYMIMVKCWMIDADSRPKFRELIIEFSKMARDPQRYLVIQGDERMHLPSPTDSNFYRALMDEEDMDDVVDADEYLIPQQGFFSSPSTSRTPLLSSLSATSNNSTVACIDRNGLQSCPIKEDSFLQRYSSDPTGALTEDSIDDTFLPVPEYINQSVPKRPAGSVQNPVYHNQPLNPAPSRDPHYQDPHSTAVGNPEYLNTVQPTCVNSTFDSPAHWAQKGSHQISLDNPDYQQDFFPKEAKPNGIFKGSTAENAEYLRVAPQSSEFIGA

IC50 [1]: 0.5 nM | IC50 [3]: 130 nM | Activity [4]: 87% | IC50 [6]: 1.7 nM | Activity [7]: 80% | Activity [8]: Dose-dependent effect | Activity [9]: 78%
Structure (SMILES): CN(C)CCCC(=O)Nc1ccc2nccc(Nc3cccc(Br)c3)c2c1
Activity [2]: 84% | Activity [5]: Active

Reference: ChEMBL document CHEMBL1156950, “Synthesis and biological evaluation of 4-anilinoquinolines as potent inhibitors of epidermal growth factor receptor” (J Med Chem, 2010)
